# Assay results reported in paper PMC3933009, “Identification and characterization of a galacturonic acid transporter from Neurospora crassa and its application for Saccharomyces cerevisiae fermentation processes” (Biotechnology for Biofuels, 2014).
# Tests used:
# Format in all cases: cell-based
# [1] = target: T1, uronate dehydrogenase (UDH) (Agrobacterium fabrum, UniProt Q7CRQ0); test: bioconversion in engineered yeast, LC-MS/MS of meso-galactaric acid; details: 90 μM D-GalA, pH 5.8, 30°C; endogenous NAD+; GAT-1 co-expressed
# T1 construct: open reading frame, Cen6/leu2 vector with TDH3 promoter, expressed in S. cerevisiae with gat-1-GFP integrated
# T1 sequence (Q7CRQ0 1-265): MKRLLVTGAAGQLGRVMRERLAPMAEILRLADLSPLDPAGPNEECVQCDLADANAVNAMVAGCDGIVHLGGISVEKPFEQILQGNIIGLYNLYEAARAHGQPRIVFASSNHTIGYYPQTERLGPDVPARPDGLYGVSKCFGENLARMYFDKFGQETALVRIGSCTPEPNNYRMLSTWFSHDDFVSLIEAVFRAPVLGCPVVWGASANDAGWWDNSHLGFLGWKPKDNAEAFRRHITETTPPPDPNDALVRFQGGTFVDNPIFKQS
# [2] = target: T2, D-galacturonate reductase (GAAA) (Aspergillus niger, UniProt A8DRH9); test: bioconversion in engineered yeast, LC-MS/MS of L-galactonic acid; details: 90 μM D-GalA, pH 5.8, 30°C; endogenous NADPH; GAT-1 co-expressed; native yeast reductase background
# T2 construct: codon-optimized gene, Cen6/leu2 vector with TDH3 promoter, expressed in S. cerevisiae with gat-1-GFP integrated
# T2 sequence (A8DRH9 1-412): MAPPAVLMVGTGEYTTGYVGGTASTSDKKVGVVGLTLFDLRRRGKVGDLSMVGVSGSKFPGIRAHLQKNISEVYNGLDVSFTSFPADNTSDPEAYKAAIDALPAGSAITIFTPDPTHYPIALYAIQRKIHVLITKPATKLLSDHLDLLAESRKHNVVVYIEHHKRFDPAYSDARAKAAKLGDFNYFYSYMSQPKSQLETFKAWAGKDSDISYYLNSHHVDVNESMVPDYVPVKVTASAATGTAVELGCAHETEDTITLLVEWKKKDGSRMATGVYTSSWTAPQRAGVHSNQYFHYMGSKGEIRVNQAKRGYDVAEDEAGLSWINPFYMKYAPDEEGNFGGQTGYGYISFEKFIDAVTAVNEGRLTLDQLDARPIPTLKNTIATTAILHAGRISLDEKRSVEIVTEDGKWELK
# [3] = target: T3, quinate permease (NCU06026; quinate-Y) (Neurospora crassa, UniProt P11636); test: uptake by induced mycelia, WT versus deletion strain, MS detection; details: 90 μM quinic acid plus D-GalA, Vogel's salts, 25°C
# T3 construct: gene qa-y; native protein in mycelia; wild type compared with deletion strain
# T3 sequence (P11636 whole entry): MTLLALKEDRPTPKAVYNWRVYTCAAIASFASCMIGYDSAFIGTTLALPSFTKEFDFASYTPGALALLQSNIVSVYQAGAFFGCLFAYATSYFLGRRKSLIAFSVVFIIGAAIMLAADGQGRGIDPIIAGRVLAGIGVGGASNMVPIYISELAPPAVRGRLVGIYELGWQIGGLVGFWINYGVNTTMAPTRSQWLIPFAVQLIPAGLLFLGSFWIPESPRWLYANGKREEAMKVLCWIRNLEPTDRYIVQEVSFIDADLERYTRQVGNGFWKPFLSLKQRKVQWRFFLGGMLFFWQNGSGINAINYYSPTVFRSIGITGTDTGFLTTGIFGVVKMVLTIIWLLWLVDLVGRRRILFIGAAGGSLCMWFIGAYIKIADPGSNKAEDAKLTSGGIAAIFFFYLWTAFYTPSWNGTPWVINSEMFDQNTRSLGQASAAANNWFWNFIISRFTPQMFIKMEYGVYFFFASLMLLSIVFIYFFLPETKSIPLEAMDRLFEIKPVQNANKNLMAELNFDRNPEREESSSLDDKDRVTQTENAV
SMILES,"bioconversion in engineered yeast, LC-MS/MS of meso-galactaric acid [1]","bioconversion in engineered yeast, LC-MS/MS of L-galactonic acid [2]","uptake by induced mycelia, WT versus deletion strain, MS detection [3]"
O=C(O)[C@H]1OC(O)[C@H](O)[C@@H](O)[C@H]1O (stereo partly drawn) [D-GalA],GalAA production was enzyme (UDH)dependent,expression of the reductase resulted in a higher product yield (GAAA/GAT-1),–
O=C(O)[C@]1(O)C[C@@H](O)[C@@H](O)[C@H](O)C1 [quinic acid],–,–,"almost completely unable to take up qa, indicating that it is the only physiologically relevant transporter"
